Reference: PubChem BioAssay (NCI)
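Growth conditions: 96-well plates. Treatment: test compound, 48 hours, 5 concentrations. Analysis: linear interpolation between bracketing concentrations; unreached endpoints set to highest concentration. Definition used: TGI = concentration required for complete inhibition of growth.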

Columns and labels:
Test in all cases: growth of human tumour cells (NCI), 48 h
M14 melanoma = test system: M14 melanoma
786-0 renal = test system: 786-0 renal
SR leukemia = test system: SR leukemia
OVCAR-4 ovarian = test system: OVCAR-4 ovarian
UACC-62 melanoma = test system: UACC-62 melanoma
OVCAR-5 ovarian = test system: OVCAR-5 ovarian
SF-539 CNS = test system: SF-539 CNS
A549 NSCLC = test system: A549 NSCLC
UACC-257 melanoma = test system: UACC-257 melanoma
K-562 leukemia = test system: K-562 leukemia
RPMI-8226 leukemia = test system: RPMI-8226 leukemia
SK-MEL-28 melanoma = test system: SK-MEL-28 melanoma
T-47D breast = test system: T-47D breast

SMILES | TGI (M14 melanoma) [µM] | TGI (786-0 renal) [µM] | TGI (SR leukemia) [µM] | TGI (OVCAR-4 ovarian) [µM] | TGI (UACC-62 melanoma) [µM] | TGI (OVCAR-5 ovarian) [µM] | TGI (SF-539 CNS) [µM] | TGI (A549 NSCLC) [µM] | TGI (UACC-257 melanoma) [µM] | TGI (K-562 leukemia) [µM] | TGI (RPMI-8226 leukemia) [µM] | TGI (SK-MEL-28 melanoma) [µM] | TGI (T-47D breast) [µM]
COC(=O)C(=O)C(/C(=N/N)C(=O)Nc1ccccc1C(N)=O)c1nc2ccc([N+](=O)[O-])cc2[nH]c1=O (configuration not stated) | > 100 | > 100 | > 100 | > 100 | > 100 | > 100 | > 100 | > 100 | > 100 | > 100 | > 100 | > 100 | 
O=C1CC2CC(CC3(CO3)C2)C1F (configuration not stated) | > 100 | > 100 | > 100 | > 100 | > 100 | > 100 |  | > 100 | > 100 | > 100 | > 100 | > 100 | > 100
CC1=N[C@@](C)(C2CC3C=CC2C3=O)COC1=O (some centres not stated) | > 100 | > 100 | > 100 | > 100 | > 100 | > 100 | > 100 | > 100 | > 100 | > 100 |  | > 100 | > 100
CCN(CC)Cc1cc(Nc2ccnc3ccc4nn(C)nc4c23)ccc1O | 27.9 | 49.5 | > 100 | 37 | 27.4 | 35.7 | 26.5 | 80 | 27.8 | > 100 | > 100 | 27.4 | 
O=S(=O)(CCC[C@H]1[C@@H](CCOCc2ccccc2)C2CCCN1O2)c1ccccc1 (some centres not stated) | > 100 | > 100 | > 100 | > 100 | > 100 | > 100 | > 100 | > 100 | > 100 | > 100 |  | > 100 | > 100
Cc1ccc(C(=O)Oc2ccc(/C=C3\CCC/C(=C\c4ccc(OC(=O)c5ccc(C)cc5)cc4)C3=O)cc2)cc1 | > 100 | > 100 | > 100 | > 100 | > 100 | > 100 | > 100 | > 100 | > 100 |  | > 100 | > 100 | > 100
COc1cc(C2OC[C@@H]3C(=O)OC[C@H]23)cc(O)c1OC (some centres not stated) | > 100 | > 100 | > 100 | > 100 | > 100 | > 100 | > 100 | > 100 | > 100 | > 100 | > 100 |  | > 100
CN1CCN(Cc2nc3c(s2)CCc2sccc2-3)CC1 | > 100 | > 100 | 99.7 | > 100 | 57 | > 100 |  | > 100 | > 100 | > 100 | > 100 | 73 | > 100
O=c1[nH]nc(Cc2ccccc2)n1/N=C/c1ccc([N+](=O)[O-])cc1 |  | > 100 |  | > 100 | > 100 | > 100 | > 100 | > 100 | > 100 | > 100 |  | > 100 | > 100
O=C1[C@@H](O)[C@@H]2CCCC[C@@]23CCCN13 | > 100 | > 100 | > 100 | > 100 | > 100 | > 100 |  | > 100 | > 100 | > 100 | > 100 | > 100 | > 100
C=C(Cl)C(C)(Cl)CCC(Cl)C(C)C (configuration not stated) | > 100 | > 100 | 64.2 | > 100 | > 100 | > 100 | > 100 | > 100 | > 100 | > 100 | > 100 | > 100 | 
O=C(NCCCN(CCCCN(CCCNC(=O)c1cc(S(=O)(=O)O)cc(O)c1O)C(=O)c1cc(S(=O)(=O)O)cc(O)c1O)C(=O)c1cc(S(=O)(=O)O)cc(O)c1O)c1cc(S(=O)(=O)O)cc(O)c1O |  | > 100 | > 100 | > 100 | > 100 |  |  | > 100 | > 100 | > 100 |  | > 100 | > 100
C/C(=N/O)c1sc(-c2nc(C)c(/C(C)=N\O)s2)nc1C | > 100 | > 100 | > 100 | > 100 | > 100 |  | > 100 | > 100 | > 100 | > 100 | > 100 | > 100 | 
CCOc1cccc(-c2cc(=O)c3cc4c(cc3[nH]2)OCO4)c1 | > 37.6 | 7.06 |  | > 100 | 21.1 | > 100 | 0.549 | 28.9 | > 100 |  | > 100 | > 100 | > 100
CC(=O)n1[nH]c(=O)n(-c2ccccc2)c1=O | > 100 | > 100 | > 100 | > 100 | > 100 | > 100 |  | > 100 | > 100 | > 100 | > 100 | > 100 | > 100
C=CCCCC1(C)CCNC1=S (configuration not stated) | > 100 | > 100 |  | > 100 | > 100 | > 100 | > 100 | > 100 | > 100 | > 100 | > 100 | > 100 | > 100
O=C1C(c2ccccc2)=C(c2ccccc2)C(c2ccc(Sc3ccc(C4=C(c5ccccc5)C(=O)C(c5ccccc5)=C4c4ccccc4)cc3)cc2)=C1c1ccccc1 | > 100 | > 100 | > 100 | > 100 | > 100 | > 100 | > 100 | > 100 | > 100 | > 100 | > 100 |  | 
CC(C)(C)n1c(=O)n2n(c1=O)C1c3cccc4cccc(c34)C2C2c3cccc4cccc(c34)C1n1c(=O)n(C(C)(C)C)c(=O)n12 | > 100 | > 100 |  |  | > 100 | > 100 | > 100 | > 100 | > 100 | > 100 | > 100 | > 100 | > 100
